Data on 14 molecules can be found in US7622581B2, “6,7,8,9-substituted 1-phenyl-1,5-dihydro-pyrido[3,2-b]indol-2-ones useful as anti-infective pharmaceutical agents” (Tibotec Pharmaceuticals Ltd., priority 2004, dated 2009).

In general, EC50 refers to the concentration needed to bring the measured effect to its halfway point.

The experiment has as its system HIV. Put plainly: Cellular assay: anti-viral activity in HIV-infected MT4 cells (MTT viability). Format: cell-based. Particulars: Human immunodeficiency virus 1, 120 h, five days incubation, MTT readout, negative logarithm of EC50 (protection of 50% of cells from cytopathogenic effect of the virus). As to the method:
The compounds of the present invention were examined for anti-viral activity in a cellular assay, which was performed according to the following procedure.
HIV- or mock-infected MT4 cells were incubated for five days in the presence of various concentrations of the inhibitor. At the end of the incubation period, the replicating virus in the control cultures has killed all HIV-infected cells in the absence of any inhibitor. Cell viability was determined by measuring the concentration of MTT, a yellow, water soluble tetrazolium dye that is converted to a purple, water insoluble formazan in the mitochondria of living cells only. Upon solubilization of the resulting formazan crystals with isopropanol, the absorbance of the solution was monitored at 540 nm. The values correlate directly to the number of living cells remaining in the culture at the completion of the five day incubation. The inhibitory activity of the compound was monitored on the virus-infected cells and was expressed as EC50 and EC90. These values represent the amount of the compound required to protect 50% and 90%, respectively, of the cells from the cytopathogenic effect of the virus. The toxicity of the compound was measured on the mock-infected cells and was expressed as CC50, which represents the concentration of compound required to inhibit the growth of the cells by 50%. The selectivity index (SI) (ratio CC50/EC50) is an indication of the selectivity of the anti-HIV activity of the inhibitor. Wherever results are reported as e.g. pEC50 or pCC50 values, the result is expressed as the negative logarithm of the result expressed as EC50 or CC50 respectively.
Background: Cytopathic effects are the visible damage that an infection or toxin causes in cultured cells.
For `Cn1c2ccc(N3CCOCC3)cc2c2c1cc(C#N)c(=O)n2-c1ccc([N+](=O)[O-])cc1` [Compound 3, 8-morpholin-5-methyl-1-(4-nitro-phenyl)-2-oxo-2,5-dihydro-1H-pyrido[3,2-b]indole-3-carbonitrile], the midpoint of the response, the EC50, lay at 2510 nM.

The molecule `CN1CCN(c2ccc3c(c2)c2c(cc(C#N)c(=O)n2-c2ccc([N+](=O)[O-])cc2)n3C)CC1` [Compound 4] gave a concentration for a half-maximal effect (EC50) of 316 nM.

In turn, `CN(C)CCCN(C)c1ccc2c(c1)c1c(cc(C#N)c(=O)n1-c1ccc([N+](=O)[O-])cc1)n2C` [Compound 7, 8-[(3-Dimethylamino-propyl)-methylamino]-5-methyl-1-(4-nitro-phenyl)-2-oxo-2,5-dihydro-1H-pyrido[3,2-b]indole-3-carbonitrile] showed a 50% effective concentration (EC50) of 158 nM.

The molecule `Cn1c2ccc(N)cc2c2c1cc(C#N)c(=O)n2-c1ccc([N+](=O)[O-])cc1` [Compound 8] gave an EC50 of 20000 nM.

`COC(=O)c1ccc2c(c1)c1c(cc(C#N)c(=O)n1-c1ccc(N)cc1)n2C` [Compound 9] gave a 50% effective concentration (EC50) of 15800 nM. This EC50 and that of the molecule before are within 1.5-fold of each other.

In turn, `COC(=O)c1ccc2c(c1)c1c(cc(C#N)c(=O)n1-c1ccc([N+](=O)[O-])cc1)n2C` [Compound 12] showed an EC50 of 2000 nM.

Consider `Cn1c2cc(F)c(F)cc2c2c1cc(C#N)c(=O)n2-c1ccc([N+](=O)[O-])cc1` [Compound 15], for which the EC50 is 398 nM.

In turn, `COc1cc2c(cc1F)c1c(cc(C#N)c(=O)n1-c1ccc([N+](=O)[O-])cc1)n2C` [Compound 16] showed a concentration giving a half-maximal response (EC50) of 3980 nM.

With `CN(C)CCCOc1ccc2c(c1)c1c(cc(C#N)c(=O)n1-c1ccc([N+](=O)[O-])cc1)n2C` [Compound 18, 8-[(3-Dimethylamino-propyl)-oxy]-5-methyl-1-(4-nitro-phenyl)-2-oxo-2,5-dihydro-1H-pyrido[3,2-b]indole-3-carbonitrile], the midpoint of the response, the EC50, lay at 251 nM. This EC50 is about 16-fold lower than that of the molecule before.

Consider `Cc1ccc2c(c1)c1c(cc(C#N)c(=O)n1-c1ccc([N+](=O)[O-])cc1)n2C` [Compound 26], for which a half-maximal response (EC50) required 15800 nM.

Consider `COc1ccc2c(c1)c1c(cc(C#N)c(=O)n1-c1ccc([N+](=O)[O-])cc1)n2C` [Compound 27, 8-methoxy-5-methyl-1-(4-nitro-phenyl)-2-oxo-2,5-dihydro-1H-pyrido[3,2-b]indole-3-carbonitrile], for which the EC50 is 79.4 nM.

`N#Cc1cc2[nH]c3cc(F)c(F)cc3c2n(-c2ccc([N+](=O)[O-])cc2)c1=O` [Compound 28] gave a half-maximal effective concentration (EC50) of 2510 nM.

On to `Cn1c2ccc(O)cc2c2c1cc(C#N)c(=O)n2-c1ccc([N+](=O)[O-])cc1` [Compound 29, 8-hydroxy-5-methyl-1-(4-nitro-phenyl)-2-oxo-2,5-dihydro-1H-pyrido[3,2-b]indole-3-carbonitrile], for which a half-maximal effect (EC50) was put at 200 nM.

In the case of `Cn1c2cc(O)ccc2c2c1cc(C#N)c(=O)n2-c1ccc([N+](=O)[O-])cc1` [Compound 32], a half-maximal response (EC50) required 1260 nM. Against the preceding molecule, the EC50 is about 6.3-fold higher.
